Read-outs that look alike come from different tables or passages of the source.
Assays:
[1] = test system: HIV strain RT-MDR (74V, 41L, 106A, 215Y); assay: microbe, parasite or virus in culture; assay type: cell-based, HIV-1; details: for times less potent than DDE240: multiple drug resistant mutant strain
Experimental: (§1) Percent inhibition of viral replication was calculated by comparing the p24 values from the test substance treated infected cells with p24 values from untreated infected cells (i.e., virus controls). In parallel, the effects of various treatments on cell viability were also examined, as described in Enrice et. al., supra. In brief, non-infected PBNWC were treated with each compound for 7 days under identical experimental conditions. A Microculture Tetrazolium Assay (NTFA), using 2,3-bis(2-methoxy-4 nitro-5-sulfophenyl)-5-[(phenylamino)-carbonyl]-2H-tetrazolium hydroxide (XTT), was performed to quantitate cellular proliferation.

[2] = test system: HIV strain HTLV-IIIB (WT); assay: p24 production in PBMNC infected with HTLV-IIIB; assay type: cell-based, HIV-1
Experimental: as §1

HIV strain A17 (Y181C) = assay: p24 production in PBMNC infected with A17; assay type: cell-based, HIV-1; details: for IC50: Human immunodeficiency virus 1, read-out: IC50 p24
Experimental: (§2) Normal human peripheral blood mononuclear cells (PBMNC) from HIV-negative donors were cultured 72 hours in RPMI 1640 supplemented with 20% (v/v) heat-inactivated fetal bovine serum (FBS), 3% interleukin-2, 2 mM L-glutairtine, 25 mM HEPES, 2 μL, NAHCO, […] gentamicin, and 4 μg/mL phytohemagglutinin prior to exposure to HIV-I at a multiplicity of infection (MOI) of 0.1 during a one-hour adsorption period at 37'C in a humidified 5% C02 atmosphere. Subsequently, cells were cultured in 96-well microliter plates (100 μl/well; 2×10^6 cells/mL, triplicate wells) in the presence of various inhibitor concentrations and aliquots of culture supernatants were removed from the wells on the 7th day after infection for p24 antigen p24 enzyme immunoassays (EIA), as previously described. (see Erice et. al., 1993, Antiimicrob. Ag. Chemotherapy 37:835–838) The applied p24 EIA was the unmodified kinetic assay commercially available from Coulter Corporation/Immunotech, Inc. (Westbrooke, Me.), which utilizes a murine monoclonal antibody to HIV core protein coated onto microwell strips to which the antigen present in the test culture supernatant samples binds. Percent inhibition of viral replication was calculated by comparing the p24 values from the test substance treated infected cells with p24 values from untreated infected cells (i.e., virus controls). In parallel, the effects of various treatments on cell viability were also examined, as described in Enrice et. al., supra. In brief, non-infected PBNWC were treated with each compound for 7 days under identical experimental conditions. A Microculture Tetrazolium Assay (NTFA), using 2,3-bis(2-methoxy-4 nitro-5-sulfophenyl)-5-[(phenylamino)-carbonyl]-2H-tetrazolium hydroxide (XTT), was performed to quantitate cellular proliferation.

[3] = test system: HIV strain A17 variant (Y181C, K103N); assay: p24 production in PBMNC infected with A17 variant; assay type: cell-based, HIV-1; details: Human immunodeficiency virus 1, read-out: IC50 p24
Experimental: as §2

[4] = biological target: T1, purified recombinant HIV RT (Human immunodeficiency virus type 1 group M subtype B, UniProt P04585); assay: Purified RT assay, cell-free Quan-T-RT system (scintillation proximity); assay type: biochemical; details: for IC50: recombinant HIV RT, cell-free
T1 construct: purified recombinant HIV RT
Experimental: The primer DNA is a 16-mer oligo(T) which has been annealed to a poly(A) template. The primer/template is bound to a strepavidin-coated SPA bead.
3H-TTP is incorporated into the primer by reverse transcription. […] The compound being tested was added to the reaction mixture at 0.001 μM–100 μM concentrations. […] The reaction was stopped by addition of 0.2 ml of 120 mM EDTA. The samples were counted in an open window using a Beckman LS 7600 instrument and IC, values were calculated by comparing the measurements to untreated samples.

[5] = Human immunodeficiency virus 1, read-out: IC50 p24, RT-MDR (74V, 41L, 106A, 215Y), PBMNC
[6] = Human immunodeficiency virus 1, IIIB, HIV replication assay
[7] = Human immunodeficiency virus 1, HTLV IIIB WT, PBMNC, read-out: IC50 p24
[8] = Human immunodeficiency virus 1, HTLV IIIB, PBMNC, read-out: IC50[p24]

| SMILES | IC50 [1, 5] | IC50 (HIV strain A17 (Y181C)) | IC50 [3] | IC50 [2, 7] | IC50 ([4]; read-out: RRT (IC50[rRT])) | further results |
| --- | --- | --- | --- | --- | --- | --- |
| Cc1cn([C@H]2C[C@H](N=[N+]=[N-])[C@@H](CO)O2)c(=O)[nH]c1=O [AZT, reference compound] | 150 nM | 6 nM | – | – | – | IC90 [2, 6]: 100 nM |
| Cc1ccnc2c1NC(=O)c1cccnc1N2C1CC1 [Nevirapine, reference compound] | 5000 nM | > 100000 nM | > 100000 nM | 34 nM | – | – |
| CCOCn1c(Cc2ccccc2)c(C(C)C)c(=O)[nH]c1=O [MKC-442, reference compound] | 300 nM | – | – | – | 800 nM | – |
| S=C(NCCc1ccccn1)Nc1ccc(Br)cn1 [Trovirdine, reference compound] | – | – | – | – | – | IC50 ([1]; Human immunodeficiency virus 1, read-out: IC50 p24): 20 nM; times less potent than DDE240 [1]: up to 7 times; times less potent than DDE240 ([1]; listed as Trouviridine): three times less potent; IC50 ([2]; Human immunodeficiency virus 1, IIIB, read-out: IC50 p24): 7 nM; times less potent than DDE240 ([2]; zidovudine-sensitive strain HTLV IIIB): 10 times |
| Fc1ccc(CCNC(=S)Nc2ccc(Br)cn2)cc1 [DDE242] | – | – | – | – | 6060 nM | IC50 ([4]; RRT (IC50[rRT])): 6000 nM; IC50 [2, 8]: 10 nM |
| CC(C)Nc1cccnc1N1CCN(C(=O)c2cc3cc(NS(C)(=O)=O)ccc3[nH]2)CC1 [Delavirdine, reference compound] | 400 nM | 50000 nM | > 100000 nM | 9 nM | – | – |
| Fc1cccc(CCNC(=S)Nc2ccc(Br)cn2)c1 [DDE241] | 20 nM | – | – | < 1 nM | 760 nM | – |
| S=C(NCCc1ccccc1Cl)Nc1ccc(Br)cn1 [DDE253] | 4 nM | – | – | < 1 nM | – | – |
| COc1ccc(OC)c(CCNC(=S)Nc2ccc(Br)cn2)c1 [DDE236, N-[2-(2,5-dimethoxyphenylethyl)]-N′-[2-(5-bromopyridyl)]-thiourea] | 5 nM | 100 nM | 11000 nM | < 1 nM | – | times more potent than trovirdine ([4]; purified recombinant HIV-RT): 8 times; IC90 fold better than AZT ([2]; HIV replication assay): 10 fold; IC90 [2, 6]: 9 nM; selectivity index (IC50[MTA]/IC50[p24]) ([2]; calculated): > 10^5; melting point: 133 to 138 °C |
| Fc1ccccc1CCNC(=S)Nc1ccc(Br)cn1 [DDE240, N-[2-(2-fluorophenethyl)]-N′-[2-(5-bromopyridyl)]-thiourea] | 6 nM | 200 nM | 41000 nM | < 1 nM | – | fold better activity than delavirdine ([1]; MDR HIV): 100 fold; fold better activity than nevirapine ([1]; MDR HIV): 800 fold; IC50 ([1]; read-out: IC50 p24, RT-MDR (74V, 41L, 106A, 215Y), PBMNC): 5 nM; IC50 [2, 8]: < 1 nM; times better activity than delavirdine (HIV strain A17 (Y181C); Y181C mutant): 200 times; times more potent than nevirapine (HIV strain A17 (Y181C); Y181C mutant): more than 500 times; melting point: 156 to 157 °C |

From patent US7186736B1, “NNI for treatment of multi-drug resistant HIV” (Parker Hughes Institute, priority 1999, dated 2007)
